Data reported in ChEMBL document CHEMBL1125702 (J Med Chem, 1991).

Each compound was assayed on Cynomolgus monkey (assay: Compound was evaluated for pseudo Hill coefficients (nH) in cynomolgus monkeys). Settings: in vivo.
Format: ADME, organism-based, Macaca fascicularis

SMILES | Hill coefficient [nH]
COC(=O)[C@H]1[C@@H](c2ccc(F)cc2)C[C@H]2CC[C@H]1N2C | 0.66
COC(=O)C1C2CCC(C[C@@H]1c1ccc(F)cc1)N2 (stereo not given in full) | 0.64
CCCN1C2CCC1C(C(=O)OC)[C@@H](c1ccc(F)cc1)C2 (stereo not given in full) | 0.7
C=CCN1C2CCC1C(C(=O)OC)[C@@H](c1ccc(F)cc1)C2 (stereo not given in full) | 0.65
COC(=O)[C@H]1[C@@H](OC(=O)c2ccccc2)C[C@@H]2CC[C@H]1N2C [COCAINE] | 0.54
